# Patent publication US12258376B2, “Fusion protein of DCTN1 protein with RET protein” (TAIHO PHARMACEUTICAL CO., LTD., priority 2017, dated 2025)
# Assays:
# [1] = system: DCTN1-RET fusion gene-expressing NIH/3T3 cells; test: In vitro cell growth assay, 3-dimensional cell culture, intracellular ATP luminescence (CellTiter-Glo 2.0); conditions: for GI50: Mus musculus, NIH3T3
# [2] = target: T1, phosphorylated RET in DCTN1-RET fusion gene-expressing NIH/3T3 cells (Homo sapiens, UniProt P07949); test: Inhibition of RET phosphorylation in DCTN1-RET fusion gene-expressing cells (western blotting); format: cell-based; conditions: 1000, 100 and 10 nmol/L, 1 hour incubation, FIG. 9
# T1 construct: expressed in transfected cells; the other entry of the earlier key: Dctn1 (O08788, Dynactin subunit 1)
# T1 sequence (P07949 with tags, fused parts or gaps with the stated changes): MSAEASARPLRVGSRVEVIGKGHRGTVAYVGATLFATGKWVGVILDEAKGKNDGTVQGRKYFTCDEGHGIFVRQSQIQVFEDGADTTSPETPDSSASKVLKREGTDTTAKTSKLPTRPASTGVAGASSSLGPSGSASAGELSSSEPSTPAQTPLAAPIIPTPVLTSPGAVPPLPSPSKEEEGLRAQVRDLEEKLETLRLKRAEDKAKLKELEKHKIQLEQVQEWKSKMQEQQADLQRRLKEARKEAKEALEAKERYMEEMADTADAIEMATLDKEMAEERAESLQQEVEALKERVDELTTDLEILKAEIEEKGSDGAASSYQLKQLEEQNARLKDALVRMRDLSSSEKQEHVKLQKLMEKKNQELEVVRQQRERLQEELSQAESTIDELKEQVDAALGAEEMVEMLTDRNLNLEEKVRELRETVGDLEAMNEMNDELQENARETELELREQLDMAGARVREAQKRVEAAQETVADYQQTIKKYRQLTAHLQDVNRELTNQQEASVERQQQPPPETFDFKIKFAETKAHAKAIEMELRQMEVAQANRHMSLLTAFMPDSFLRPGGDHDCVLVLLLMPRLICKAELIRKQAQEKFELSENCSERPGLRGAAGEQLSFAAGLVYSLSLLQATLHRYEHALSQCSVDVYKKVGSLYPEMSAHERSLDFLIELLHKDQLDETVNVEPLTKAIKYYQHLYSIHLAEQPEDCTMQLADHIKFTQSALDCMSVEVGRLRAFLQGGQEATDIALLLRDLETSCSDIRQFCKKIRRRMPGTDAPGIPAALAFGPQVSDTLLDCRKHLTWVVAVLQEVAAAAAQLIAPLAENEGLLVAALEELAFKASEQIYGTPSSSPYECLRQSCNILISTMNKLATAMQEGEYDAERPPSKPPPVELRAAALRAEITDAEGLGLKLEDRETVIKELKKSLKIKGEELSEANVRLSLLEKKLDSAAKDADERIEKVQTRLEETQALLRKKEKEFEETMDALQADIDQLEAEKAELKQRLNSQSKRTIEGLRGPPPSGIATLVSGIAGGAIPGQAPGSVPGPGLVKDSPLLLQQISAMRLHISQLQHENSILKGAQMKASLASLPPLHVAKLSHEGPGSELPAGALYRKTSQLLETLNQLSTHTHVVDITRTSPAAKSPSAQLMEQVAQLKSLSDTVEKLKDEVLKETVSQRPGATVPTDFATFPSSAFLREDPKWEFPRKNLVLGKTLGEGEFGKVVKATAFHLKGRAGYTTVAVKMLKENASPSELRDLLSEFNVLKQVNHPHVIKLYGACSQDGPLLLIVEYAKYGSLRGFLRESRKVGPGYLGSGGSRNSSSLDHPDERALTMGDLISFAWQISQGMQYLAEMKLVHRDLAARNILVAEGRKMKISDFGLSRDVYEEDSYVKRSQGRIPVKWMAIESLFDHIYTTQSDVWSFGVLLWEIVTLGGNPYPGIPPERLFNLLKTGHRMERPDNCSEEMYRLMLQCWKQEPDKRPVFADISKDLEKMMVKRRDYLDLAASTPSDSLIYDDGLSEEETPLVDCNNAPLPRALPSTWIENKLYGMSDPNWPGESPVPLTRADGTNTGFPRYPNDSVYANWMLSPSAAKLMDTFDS
# Protocol: The expression of DCTN1-RET fusion protein in the obtained DCTN1-RET fusion gene-expressing NIH/3T3 cells was confirmed by western blotting. Specifically, the medium was removed from the culture flask, followed by washing with PBS once. Sample Diluent Concentrate 2 (R&D Systems) containing a phosphatase inhibitor (Roche) and a protease inhibitor (Roche) was added to the culture flask, and the cell lysate was collected with a scraper. From the collected cell lysate, a protein sample was obtained by centrifugation. The protein sample was subjected to protein determination, and the protein concentration was adjusted to a prescribed concentration. […] After the membrane was washed with TBS-T, the protein was detected using a SuperSignal West Dura Extended Duration Substrate (Thermo Fisher) with an Amersham Imager 600 lumino image analyzer (GE Healthcare). The molecular weight of the detected protein was confirmed with Precision Plus Protein Kaleidoscope Prestained Protein Standards (Bio-Rad). As shown in FIG. 4a) and 4b), endogenous RET (150 and 175 kDa) was not detected when the anti-pRET antibody or the anti-RET antibody was used. […] Additionally, as shown in FIG. 4c), endogenous DCTN1 was detected at around 150 kDa in the use of the anti-DCTN1 antibody. […]
# DCTN1-RET fusion protein = test: Inhibition of DCTN1-RET fusion protein expression by siRNA (western blotting); format: cell-based, human; conditions: siRNA treatment overnight, DCTN1-RET fusion gene-expressing NIH/3T3 cells, FIG. 7
# [3] = system: DCTN1-RET fusion gene-expressing NIH/3T3 cells; test: Cell growth inhibitory effect of siRNA, 3-dimensional cell culture; format: cell-based, mouse; conditions: 3-dimensional cell culture after siRNA treatment; no treatment 4.9 times, negative control siRNA 3.6 times; FIG. 8
# Protocol: NIH/3T3 cells grow well under 2-dimensional cell culture conditions, but barely grow under 3-dimensional cell culture conditions. However, NIH/3T3 cells are also known to grow under 3-dimensional cell culture conditions when an oncogene is expressed in the cells. Thus, whether the DCTN1-RET fusion gene is an oncogene was confirmed using this character. DCTN1-RET fusion gene-expressing NIH/3T3 cells and NIH/3T3 cells were cultured at 37° C. in 5% CO2 in a 2-dimensional cell culture; and collected with trypsin, followed by counting the number of cells. To perform a 3-dimensional cell culture, a medium for 3-dimensional cell culture was prepared using an FCeM-series Preparation Kit (Nissan Chemical Industries, Ltd.), D-MEM (high glucose) (containing L-glutamine, phenol red, sodium pyruvate, and 1500 mg/L sodium hydrogen carbonate) (Wako), and newborn calf serum (NBCS) (Gibco). […] The day following seeding (day 1) and after 8 days from seeding (day 8), the luminescence level (counts per second: cps) was measured using a detection reagent for intracellular ATP luminescence (CellTiter-Glo 2.0 reagent, Promega) with a luminometer (EnSpire, PerkinElmer), and the result was determined to be the indicator for viable cell count. The cell growth rate was then calculated from the measurement result on day 1 and the measurement result on day 8 (N=3). […]
# Subsequently, to confirm a cell growth inhibitory effect, cells were collected with trypsin from the wells without treatment and wells treated with siRNA, and the number of cells was counted. A 3-dimensional cell culture was then performed in the same manner as in Example 5, and on the day seeding was performed (day 0) and after 4 days from seeding (day 4), the number of viable cells was counted in the same manner as in Example 5. The growth rate of the cells was calculated from the measurement result on day 0 and the measurement result on day 4.
molecule,measurement,setting,value
CCc1cc2c(cc1N1CCC(N3CCOCC3)CC1)C(C)(C)c1[nH]c3cc(C#N)ccc3c1C2=O [Alectinib],GI50,[1],> 1000 nM
COc1cc2nccc(Oc3ccc(NC(=O)C4(C(=O)Nc5ccc(F)cc5)CC4)cc3)c2cc1OC [Cabozantinib],GI50,[1],91.1 nM
"COCc1ccc(NC(=O)c2c(C#CCN3CCOCC3)n(C3(C)CC3)c3ncnc(N)c23)cc1 [Compound 6, 4-amino-N-[4-(methoxymethyl)phenyl]-7-(1-methylcyclopropyl)-6-(3-morpholinopro-1-pyn-1-yl)-7H-pyrrolo[2,3-d]pyrimidine-5-carboxamide]",GI50,[1],3.6 nM
COc1cc2nccc(Oc3ccc(NC(=O)NC4CC4)c(Cl)c3)c2cc1C(N)=O [Lenvatinib],GI50,[1],50.3 nM
same,growth of DCTN1-RET fusion gene-expressing NIH/3T3 cells,"[1]; result in words, as shown in Table 7",inhibited the growth
same,phosphorylated RET levels,[2],notably decreased
COc1cc2c(Nc3ccc(Br)cc3F)ncnc2cc1OCC1CCN(C)CC1 [Vandetanib],GI50,[1],68.7 nM
"CACAUGUCAUCAAAUUGUATT (CACAUGUCAUCAAAUUGUANN; listed as RNA, chemistry not given here) [RET siRNA1, siRNA targeting human RET]",expression of the DCTN1-RET fusion protein,DCTN1-RET fusion protein,inhibited
same,growth: number of cells on day 4 relative to day 0,[3],about 2.0 times
"CCACUGCUACCACAAGUUUTT (CCACUGCUACCACAAGUUUNN; listed as RNA, chemistry not given here) [RET siRNA3, siRNA targeting human RET]",expression of the DCTN1-RET fusion protein,DCTN1-RET fusion protein,not inhibited
same,growth: number of cells on day 4 relative to day 0,[3],3.7 times
"GGAUUGAAAACAAACUCUATT (GGAUUGAAAACAAACUCUANN; listed as RNA, chemistry not given here) [RET siRNA2, siRNA targeting human RET]",expression of the DCTN1-RET fusion protein,DCTN1-RET fusion protein,inhibited
same,growth: number of cells on day 4 relative to day 0,[3],~2.4 times
